According to patent publication US20240208992A1, “MACROCYCLES AS CFTR MODULATORS” (Idorsia Pharmaceuticals Ltd, priority 2021, published 2024):

Target: human F508del-CFTR (Homo sapiens, UniProt P13569, DEL508-508)
Experiment: F508del-CFTR cell surface expression (corrector activity), DiscoveRx ß-galactosidase complementation chemiluminescence assay in recombinant U2OS cell line;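 also: U2OS cells co-expressing ProLink-tagged F508del-CFTR and a membrane-anchored enzyme acceptor, where more surface CFTR restores β-galactosidase activity measured by chemiluminescence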
Conditions: for EC50: EC50, F508del-CFTR cell surface expression; for Emax: U2OS
[1] = U2OS cell line, 16h compound incubation, geomean values
[2] = in relation to the Emax of the corrector lumacaftor (=100%), U2OS cell line, 16h compound incubation, arithmetic mean values
[3] = U2OS cells, 16h compound incubation, geomean values
[4] = in relation to Emax of corrector lumacaftor (=100%), arithmetic mean values
[5] = U2OS cells, 16h compound incubation, geomean of several measurements
[6] = in relation to the Emax of the corrector lumacaftor (=100%), U2OS cells, 16h compound incubation, arithmetic mean

Sequence of human F508del-CFTR (P13569 with tags, fused parts or gaps DEL508-508): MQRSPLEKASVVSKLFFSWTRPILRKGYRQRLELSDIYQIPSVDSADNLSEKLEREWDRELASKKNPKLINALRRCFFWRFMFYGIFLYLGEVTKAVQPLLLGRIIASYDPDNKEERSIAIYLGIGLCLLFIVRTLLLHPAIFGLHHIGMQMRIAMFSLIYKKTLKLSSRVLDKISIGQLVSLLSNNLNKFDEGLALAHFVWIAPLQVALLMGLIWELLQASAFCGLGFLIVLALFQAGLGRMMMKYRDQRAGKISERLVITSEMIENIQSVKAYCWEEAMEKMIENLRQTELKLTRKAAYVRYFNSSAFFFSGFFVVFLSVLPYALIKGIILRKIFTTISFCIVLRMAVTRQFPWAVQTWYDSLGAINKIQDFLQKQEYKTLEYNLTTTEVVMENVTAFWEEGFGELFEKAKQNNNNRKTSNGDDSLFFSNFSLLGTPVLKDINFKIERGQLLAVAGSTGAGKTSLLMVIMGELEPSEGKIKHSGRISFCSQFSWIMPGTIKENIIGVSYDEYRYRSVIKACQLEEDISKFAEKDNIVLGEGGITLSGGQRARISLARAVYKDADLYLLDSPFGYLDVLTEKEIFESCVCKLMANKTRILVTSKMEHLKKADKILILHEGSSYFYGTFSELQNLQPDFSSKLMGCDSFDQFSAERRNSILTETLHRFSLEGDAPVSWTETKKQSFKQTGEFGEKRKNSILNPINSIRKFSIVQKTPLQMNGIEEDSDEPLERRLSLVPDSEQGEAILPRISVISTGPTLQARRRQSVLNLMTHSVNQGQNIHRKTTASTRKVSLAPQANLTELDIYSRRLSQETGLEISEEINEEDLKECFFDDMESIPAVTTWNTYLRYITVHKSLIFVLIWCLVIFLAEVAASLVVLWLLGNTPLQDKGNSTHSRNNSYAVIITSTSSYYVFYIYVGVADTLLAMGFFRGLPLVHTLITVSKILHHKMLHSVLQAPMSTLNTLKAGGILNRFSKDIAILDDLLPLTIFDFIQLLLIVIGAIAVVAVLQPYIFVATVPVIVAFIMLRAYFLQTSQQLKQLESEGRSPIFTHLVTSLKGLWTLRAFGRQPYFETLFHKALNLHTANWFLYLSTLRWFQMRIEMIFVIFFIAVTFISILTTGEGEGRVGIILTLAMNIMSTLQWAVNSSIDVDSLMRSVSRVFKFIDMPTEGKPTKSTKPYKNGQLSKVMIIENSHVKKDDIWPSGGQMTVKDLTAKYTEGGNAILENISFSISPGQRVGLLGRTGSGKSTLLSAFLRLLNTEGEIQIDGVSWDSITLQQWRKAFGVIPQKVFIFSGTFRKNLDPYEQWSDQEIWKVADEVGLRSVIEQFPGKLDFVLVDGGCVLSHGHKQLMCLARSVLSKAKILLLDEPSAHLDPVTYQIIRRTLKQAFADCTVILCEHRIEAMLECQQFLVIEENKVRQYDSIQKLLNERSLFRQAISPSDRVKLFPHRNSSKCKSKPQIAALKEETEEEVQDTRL

Structure (SMILES) | EC50 [1] [µM] | Emax [2] [%] | EC50 [3] [µM] | Emax [4] [%] | EC50 [5] [µM] | Emax [6] [%]
CC(C)C[C@H]1C(=O)N(C)C2(CC2)C(=O)N[C@H](Cc2ccccc2)COc2cnc3ccc(F)cc3c2C(=O)N[C@H](C(=O)NCCn2cc(C3CC3)cn2)CC(=O)N1C [Example 172, (3′S,7′S,13′R)-13′-benzyl-N-(2-(4-cyclopropyl-1H-pyrazol-1-yl)ethyl)-20′-fluoro-7′-isobutyl-6′,9′-dimethyl-1′,5′,8′,11′-tetraoxo-2′,3′,4′,5′,6′,7′,8′,9′,11′,12′,13′,14′-dodecahydro-1′H-spiro[cyclopropane-1,10′-[1]oxa[4,7,10,14]tetraazacycloheptadecino[17,16-c]quinoline]-3′-carboxamide] | 0.324 | 213 |  |  |  | 
COc1cc(CCNC(=O)[C@@H]2CC(=O)N(C)[C@@H](CC(C)C)C(=O)N3CCCC[C@@H]3C(=O)N[C@H](Cc3ccccc3)COc3ccc4ncc(F)cc4c3C(=O)N2)on1 [Example 769, (9S,13S,19aR,22R)-22-benzyl-5-fluoro-13-isobutyl-N-(2-(3-methoxyisoxazol-5-yl)ethyl)-12-methyl-7,11,14,20-tetraoxo-7,8,9,10,11,12,13,14,17,18,19,19a,20,21,22,23-hexadecahydro-16H-pyrido[2′,1′:6,7][1]oxa[4,7,10,14]tetraazacycloheptadecino[16,17-f]quinoline-9-carboxamide] |  |  | 0.14 | 346 |  | 
CC(C)C[C@H]1C(=O)N(C)[C@@H](Cc2nc(C(F)(F)F)no2)C(=O)N[C@H](Cc2ccccc2)COc2cnc3ccc(F)cc3c2C(=O)N[C@H](C(=O)NCCc2noc(C3CC3)n2)CC(=O)N1C [Example 812, (3S,7S,10S,13R)-13-benzyl-N-(2-(5-cyclopropyl-1,2,4-oxadiazol-3-yl)ethyl)-20-fluoro-7-isobutyl-6,9-dimethyl-1,5,8,11-tetraoxo-10-((3-(trifluoromethyl)-1,2,4-oxadiazol-5-yl)methyl)-1,2,3,4,5,6,7,8,9,10,11,12,13,14-tetradecahydro-[1]oxa[4,7,10,14]tetraazacycloheptadecino[17,16-c]quinoline-3-carboxamide] |  |  |  |  | 0.127 | 280
CC(C)C[C@H]1C(=O)N2CCCC[C@@H]2C(=O)N[C@H](Cc2ccccc2)COc2ccc3ncn(C)c3c2C(=O)N[C@H](C(=O)NCCc2ccccc2)CC(=O)N1C (racemic) [Example 27, (8RS,12S,18aR,21R)-21-benzyl-12-isobutyl-5,11-dimethyl-6,10,13,19-tetraoxo-N-phenethyl-6,7,8,9,10,11,12,13,16,17,18,18a,19,20,21,22-hexadecahydro-5H,15H-imidazo[4′,5′:5,6]benzo[1,2-p]pyrido[2,1-f][1]oxa[4,7,10,14]tetraazacycloheptadecine-8-carboxamide] | 0.474 | 114 |  |  |  | 
COc1cccc(CCNC(=O)[C@@H]2CC(=O)N(C)[C@@H](CC(C)C)C(=O)N(C)CC(=O)N[C@H](Cc3ccccc3)COc3ccc4ccccc4c3C(=O)N2)c1 [Example 595, (3S,7S,13R)-13-benzyl-7-isobutyl-N-(3-methoxyphenethyl)-6,9-dimethyl-1,5,8,11-tetraoxo-1,2,3,4,5,6,7,8,9,10,11,12,13,14-tetradecahydronaphtho[1,2-p][1]oxa[4,7,10,14]tetraazacycloheptadecine-3-carboxamide] |  |  | 0.332 | 233 |  | 
COc1noc(CCNC(=O)[C@@H]2CC(=O)N(C)[C@@H](CC(C)C)C(=O)N(C)[C@H](CC(F)F)C(=O)N[C@H](Cc3ccccc3)COc3cc(C)nc(OC)c3C(=O)N2)c1F [Example 968, (3R,6R,9S,13S)-3-benzyl-6-(2,2-difluoroethyl)-N-(2-(4-fluoro-3-methoxyisoxazol-5-yl)ethyl)-9-isobutyl-16-methoxy-7,10,18-trimethyl-5,8,11,15-tetraoxo-2,3,4,5,6,7,8,9,10,11,12,13,14,15-tetradecahydropyrido[3,4-p][1]oxa[4,7,10,14]tetraazacycloheptadecine-13-carboxamide] |  |  |  |  | 0.226 | 478
